Test results published in BindingDB's records for doi:10.1021/jm501892g (Ensemble Therapeutics, 2015).

Columns and labels:
[1] = biological target: Baculoviral IAP repeat-containing protein 2 (cIAP1, BIRC2, Homo sapiens) (UniProt Q13490); assay: Inhibition of cIAP1 BIR3 (154 to 352 residues) (unknown origin) by fluoresceinated dimeric SMAC peptide based fluorescence polarization assay
[2] = biological target: E3 ubiquitin-protein ligase XIAP (BIRC4, Homo sapiens) (UniProt P98170); assay: Inhibition of XIAP BIR2-3 (125 to 356 residues) C202A/C213G mutant (unknown origin) fluoresceinated dimeric SMAC peptide based fluorescence polarization assay
E3 ubiquitin-protein ligase XIAP (BIRC4, Homo sapiens), sequence (P98170 whole entry, looked up, the tested form may be a part): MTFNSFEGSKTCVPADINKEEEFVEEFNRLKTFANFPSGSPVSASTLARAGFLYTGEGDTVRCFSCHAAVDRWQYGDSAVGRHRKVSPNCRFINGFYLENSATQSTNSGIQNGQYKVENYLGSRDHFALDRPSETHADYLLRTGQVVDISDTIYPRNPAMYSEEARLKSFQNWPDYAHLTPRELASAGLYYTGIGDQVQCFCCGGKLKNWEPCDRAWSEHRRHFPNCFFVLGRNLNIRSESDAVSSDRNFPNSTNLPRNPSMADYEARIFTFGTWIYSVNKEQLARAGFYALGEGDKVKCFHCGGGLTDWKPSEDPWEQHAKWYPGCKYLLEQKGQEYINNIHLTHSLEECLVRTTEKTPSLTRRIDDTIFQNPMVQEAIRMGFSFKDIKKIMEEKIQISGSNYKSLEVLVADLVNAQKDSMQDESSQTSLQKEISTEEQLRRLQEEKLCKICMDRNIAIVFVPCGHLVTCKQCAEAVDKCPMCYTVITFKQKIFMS

Baculoviral IAP repeat-containing protein 2 (cIAP1, BIRC2, Homo sapiens), sequence (Q13490 whole entry, looked up, the tested form may be a part): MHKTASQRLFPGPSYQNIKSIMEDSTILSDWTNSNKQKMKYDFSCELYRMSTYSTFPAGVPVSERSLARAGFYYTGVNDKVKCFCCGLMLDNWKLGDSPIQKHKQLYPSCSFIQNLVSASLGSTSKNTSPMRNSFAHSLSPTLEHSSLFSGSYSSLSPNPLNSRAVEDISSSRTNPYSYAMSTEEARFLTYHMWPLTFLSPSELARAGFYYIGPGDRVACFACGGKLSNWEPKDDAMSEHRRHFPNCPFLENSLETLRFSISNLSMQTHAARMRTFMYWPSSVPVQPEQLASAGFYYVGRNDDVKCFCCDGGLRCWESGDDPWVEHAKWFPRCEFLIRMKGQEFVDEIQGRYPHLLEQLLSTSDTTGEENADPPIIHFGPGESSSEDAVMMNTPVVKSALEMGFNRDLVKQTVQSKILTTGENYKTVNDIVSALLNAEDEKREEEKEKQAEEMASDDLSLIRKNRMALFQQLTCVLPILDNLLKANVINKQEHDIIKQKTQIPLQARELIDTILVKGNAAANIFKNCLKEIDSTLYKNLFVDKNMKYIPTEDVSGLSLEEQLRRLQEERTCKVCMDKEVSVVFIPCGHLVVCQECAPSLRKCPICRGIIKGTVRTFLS

IC50 [1]	IC50 [2]	EC50 [1]	SMILES
17 nM	–	–	CN[C@@H](C)C(=O)N[C@H](C(=O)N1C[C@@H]2C[C@H]1C(=O)N[C@@H](Cc1ccc3ccccc3c1)C(=O)N[C@H](C(=O)O)Cc1ccc(cc1)OCc1cn(nn1)[C@H]1C[C@@H](C(=O)N[C@@H](Cc3ccc4ccccc4c3)C(=O)N[C@H](C(=O)O)Cc3ccc(cc3)OCc3cn2nn3)N(C(=O)[C@@H](NC(=O)[C@H](C)NC)C(C)C)C1)C(C)C
17 nM	–	–	CN[C@@H](C)C(=O)N[C@H](C(=O)N1C[C@@H]2C[C@H]1C(=O)N[C@@H](Cc1cccc3ccccc13)C(=O)N[C@H](C(=O)O)Cc1ccc(cc1)OCc1cn(nn1)[C@H]1C[C@@H](C(=O)N[C@@H](Cc3cccc4ccccc34)C(=O)N[C@H](C(=O)O)Cc3ccc(cc3)OCc3cn2nn3)N(C(=O)[C@@H](NC(=O)[C@H](C)NC)C(C)C)C1)C(C)C
11 nM	–	–	CN[C@@H](C)C(=O)N[C@H](C(=O)N1C[C@@H]2C[C@H]1C(=O)N[C@@H](Cc1ccccc1)C(=O)N[C@H](C(=O)O)Cc1ccc(cc1)OCc1cn(nn1)[C@H]1C[C@@H](C(=O)N[C@@H](Cc3ccccc3)C(=O)N[C@H](C(=O)O)Cc3ccc(cc3)OCc3cn2nn3)N(C(=O)[C@@H](NC(=O)[C@H](C)NC)C(C)C)C1)C(C)C
8 nM	–	–	CN[C@@H](C)C(=O)N[C@H](C(=O)N1C[C@@H]2C[C@H]1C(=O)N[C@@H](Cc1ccccc1)C(=O)N[C@H](C(=O)O)Cc1ccc(cc1)NC(=O)CCc1cn(nn1)[C@H]1C[C@@H](C(=O)N[C@@H](Cc3ccccc3)C(=O)N[C@H](C(=O)O)Cc3ccc(cc3)NC(=O)CCc3cn2nn3)N(C(=O)[C@@H](NC(=O)[C@H](C)NC)C(C)C)C1)C(C)C
10 nM	9 nM	–	CN[C@@H](C)C(=O)N[C@H](C(=O)N1C[C@@H]2C[C@H]1C(=O)N[C@@H](Cc1ccc3ccccc3c1)C(=O)N[C@H](C(=O)O)Cc1cn(nn1)[C@H]1C[C@@H](C(=O)N[C@@H](Cc3ccc4ccccc4c3)C(=O)N[C@H](C(=O)O)Cc3cn2nn3)N(C(=O)[C@@H](NC(=O)[C@H](C)NC)C(C)C)C1)C(C)C
–	–	36 nM	CN[C@@H](C)C(=O)N[C@H](C(=O)N1C[C@@H]2C[C@H]1C(=O)N[C@@H](Cc1ccccc1)C(=O)N[C@H](C(=O)O)Cc1ccc(cc1)NC(=O)CCc1cn2nn1)C(C)C
–	–	20 nM	CN[C@@H](C)C(=O)N[C@H](C(=O)N1C[C@@H]2C[C@H]1C(=O)N[C@@H](Cc1ccccc1)C(=O)N[C@H](C(=O)O)Cc1ccc(cc1)OCc1cn2nn1)C(C)C
